Experimental data taken from PubChem BioAssay AID2060327 (Molecular Pharmacology Branch, DTP, NCI, 2025).

Tested on: PC-3 multi-cell spheroids, viability
Assay: Anticancer human tumor PC-3 cell line growth inhibition [IpAb];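 further: spheroids exposed to compounds for 7 days before readout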;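 on viability, T/C: 100% = DMSO vehicle control wells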
Conditions: for IC50: curve of first compound; for viability, T/C: stronger effect = lower value
Outline: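 Multi-cell spheroids of 60% tumour cells, 25% HUVEC and 15% MSC in ultra-low-attachment U-bottom wells, treated with agents combined with ipatasertib or abemaciclib. Half-log ranges top out near clinical Cmax, or 10 microM when Cmax is unknown.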

[1] = second compound 0.01 µM, first compound 0.0316 µM
[2] = second compound 0.01 µM, first compound 0.1 µM
[3] = second compound 0.01 µM, first compound 0.316 µM
[4] = second compound 0.01 µM, first compound 1 µM
[5] = second compound 0.01 µM, first compound 3.16 µM
[6] = second compound 0.01 µM, first compound 10 µM
[7] = second compound 0.0316 µM, first compound 0.0316 µM
[8] = second compound 0.0316 µM, first compound 0.1 µM
[9] = second compound 0.0316 µM, first compound 0.316 µM
[10] = second compound 0.0316 µM, first compound 1 µM
[11] = second compound 0.0316 µM, first compound 3.16 µM
[12] = second compound 0.0316 µM, first compound 10 µM
[13] = second compound 0.1 µM, first compound 0.0316 µM
[14] = second compound 0.1 µM, first compound 0.1 µM
[15] = second compound 0.1 µM, first compound 0.316 µM
[16] = second compound 0.1 µM, first compound 1 µM
[17] = second compound 0.1 µM, first compound 3.16 µM
[18] = second compound 0.1 µM, first compound 10 µM
[19] = second compound 0.316 µM, first compound 0.0316 µM
[20] = second compound 0.316 µM, first compound 0.1 µM
[21] = second compound 0.316 µM, first compound 0.316 µM
[22] = second compound 0.316 µM, first compound 1 µM
[23] = second compound 0.316 µM, first compound 3.16 µM
[24] = second compound 0.316 µM, first compound 10 µM
[25] = second compound 1 µM, first compound 0.0316 µM
[26] = second compound 1 µM, first compound 0.1 µM
[27] = second compound 1 µM, first compound 0.316 µM
[28] = second compound 1 µM, first compound 1 µM
[29] = second compound 1 µM, first compound 3.16 µM
[30] = second compound 1 µM, first compound 10 µM

Cn1cnc2c(F)c(Nc3ccc(Br)cc3Cl)c(C(=O)NOCCO)cc21 + CCN1CCN(Cc2ccc(Nc3ncc(F)c(-c4cc(F)c5nc(C)n(C(C)C)c5c4)n3)nc2)CC1
IC50 (second compound 0.01 µM): > 3000 nM | IC50 (second compound 0.0316 µM): 1950 nM | IC50 (second compound 0.1 µM): 1580 nM | IC50 (second compound 0.316 µM): 594 nM | IC50 (second compound 1 µM): 29.4 nM | viability, T/C (second compound 0.01 µM, first compound 0.00949 µM): 95% | viability, T/C (second compound 0.01 µM, first compound 0.03 µM): 86.2% | viability, T/C (second compound 0.01 µM, first compound 0.0949 µM): 91.7% | viability, T/C (second compound 0.01 µM, first compound 0.3 µM): 87.7% | viability, T/C (second compound 0.01 µM, first compound 0.949 µM): 79.7% | viability, T/C (second compound 0.01 µM, first compound 3 µM): 59.8% | viability, T/C (second compound 0.0316 µM, first compound 0.00949 µM): 74.1% | viability, T/C (second compound 0.0316 µM, first compound 0.03 µM): 72.1% | viability, T/C (second compound 0.0316 µM, first compound 0.0949 µM): 62.2% | viability, T/C (second compound 0.0316 µM, first compound 0.3 µM): 71.8% | viability, T/C (second compound 0.0316 µM, first compound 0.949 µM): 57% | viability, T/C (second compound 0.0316 µM, first compound 3 µM): 45% | viability, T/C (second compound 0.1 µM, first compound 0.00949 µM): 56% | viability, T/C (second compound 0.1 µM, first compound 0.03 µM): 58.3% | viability, T/C (second compound 0.1 µM, first compound 0.0949 µM): 58.2% | viability, T/C (second compound 0.1 µM, first compound 0.3 µM): 49.2% | viability, T/C (second compound 0.1 µM, first compound 0.949 µM): 53.7% | viability, T/C (second compound 0.1 µM, first compound 3 µM): 47.8% | viability, T/C (second compound 0.316 µM, first compound 0.00949 µM): 60.2% | viability, T/C (second compound 0.316 µM, first compound 0.03 µM): 50.5% | viability, T/C (second compound 0.316 µM, first compound 0.0949 µM): 53.6% | viability, T/C (second compound 0.316 µM, first compound 0.3 µM): 54.6% | viability, T/C (second compound 0.316 µM, first compound 0.949 µM): 48.1% | viability, T/C (second compound 0.316 µM, first compound 3 µM): 41.5% | viability, T/C (second compound 1 µM, first compound 0.00949 µM): 53.2% | viability, T/C (second compound 1 µM, first compound 0.03 µM): 47.3% | viability, T/C (second compound 1 µM, first compound 0.0949 µM): 42.6% | viability, T/C (second compound 1 µM, first compound 0.3 µM): 52.1% | viability, T/C (second compound 1 µM, first compound 0.949 µM): 57.2% | viability, T/C (second compound 1 µM, first compound 3 µM): 36.5%

Cn1ncc(Cl)c1-c1cc(C(=O)NC(CN)Cc2cccc(F)c2)sc1Cl (stereo not given) + CCN1CCN(Cc2ccc(Nc3ncc(F)c(-c4cc(F)c5nc(C)n(C(C)C)c5c4)n3)nc2)CC1
IC50 (second compound 0.01 µM): 127 nM | IC50 (second compound 0.0316 µM): 101 nM | IC50 (second compound 0.1 µM): 62.9 nM | IC50 (second compound 0.316 µM): 52.6 nM | IC50 (second compound 1 µM): < 31.6 nM | viability, T/C [1]: 70.5% | viability, T/C [2]: 55.3% | viability, T/C [3]: 35.8% | viability, T/C [4]: 17.5% | viability, T/C [5]: 15.5% | viability, T/C [6]: 0.14% | viability, T/C [7]: 57.2% | viability, T/C [8]: 53% | viability, T/C [9]: 26.9% | viability, T/C [10]: 13.8% | viability, T/C [11]: 13.8% | viability, T/C [12]: 0.1% | viability, T/C [13]: 53.2% | viability, T/C [14]: 48.3% | viability, T/C [15]: 17.5% | viability, T/C [16]: 13.3% | viability, T/C [17]: 9.97% | viability, T/C [18]: 0.1% | viability, T/C [19]: 56.5% | viability, T/C [20]: 44% | viability, T/C [21]: 19.4% | viability, T/C [22]: 13.9% | viability, T/C [23]: 11.6% | viability, T/C [24]: 0.16% | viability, T/C [25]: 46.3% | viability, T/C [26]: 38.9% | viability, T/C [27]: 28% | viability, T/C [28]: 17.2% | viability, T/C [29]: 12.1% | viability, T/C [30]: 0.16%

CCCS(=O)(=O)Nc1ccc(F)c(C(=O)c2c[nH]c3ncc(-c4ccc(Cl)cc4)cc23)c1F + CCN1CCN(Cc2ccc(Nc3ncc(F)c(-c4cc(F)c5nc(C)n(C(C)C)c5c4)n3)nc2)CC1
IC50 (second compound 0.01 µM): 9020 nM | IC50 (second compound 0.0316 µM): 6600 nM | IC50 (second compound 0.1 µM): 8630 nM | IC50 (second compound 0.316 µM): 4290 nM | IC50 (second compound 1 µM): 3410 nM | viability, T/C [1]: 92.5% | viability, T/C [2]: 96.8% | viability, T/C [3]: 104% | viability, T/C [4]: 99.5% | viability, T/C [5]: 76.3% | viability, T/C [6]: 47.4% | viability, T/C [7]: 65% | viability, T/C [8]: 79.1% | viability, T/C [9]: 71.7% | viability, T/C [10]: 77.8% | viability, T/C [11]: 69.3% | viability, T/C [12]: 38.8% | viability, T/C [13]: 57.3% | viability, T/C [14]: 57.4% | viability, T/C [15]: 68.6% | viability, T/C [16]: 64.1% | viability, T/C [17]: 61.9% | viability, T/C [18]: 34.9% | viability, T/C [19]: 64.7% | viability, T/C [20]: 64% | viability, T/C [21]: 68% | viability, T/C [22]: 62.4% | viability, T/C [23]: 57.2% | viability, T/C [24]: 30.6% | viability, T/C [25]: 61.5% | viability, T/C [26]: 58.5% | viability, T/C [27]: 65.3% | viability, T/C [28]: 54.6% | viability, T/C [29]: 52.6% | viability, T/C [30]: 30.6%
